According to patent publication US12428405B2, “Chalcone-based chemotherapeutic compound for triple negative breast cancer” (QATAR UNIVERSITY, priority 2019, dated 2025):
Entries after “also recorded” stand apart in the source; their conditions may differ.

What was measured:
Assay type in all cases: cell-based
[1] = test system: MDA-MB-231; experiment: Morphological examination; settings: 10 μM
Experimental: (§1) MCF-7, MDA-MB-231, MDA-MB-468 and HNME-E6/E7 cells were seeded in a 6-well plates at a concentration of 200,000-300,000 cells/well and were incubated overnight. After incubation, cells were treated with different compounds.

[2] = test system: MDA-MB-468; experiment: Morphological examination; settings: 10 μM; 24 hours
Experimental: as §1

[3] = test system: MCF-7; experiment: Morphological examination; settings: 10 μM; 48 hours
Experimental: as §1

[4] = test system: MCF-7; experiment: Soft agar colony formation assay; settings: for less colonies as compared to untreated: 5 and 10 μM, 14 days post treatment; for colony formation (in words): MCF-7, soft agar
[5] = test system: MDA-MB-231; experiment: Cell cycle analysis (flow cytometry); settings: 48 hours
Experimental: (§2) The MDA-MB-231, MDA-MB-468 and MCF-7 cell lines were seeded on 6-well plates at a concentration of 200,000 cells per well and were maintained in culture supplemented with 10% fetal bovine serum for 8-10 hours. The same day, media was removed and cells were incubated overnight with serum free media. Second day, cells were treated with the compounds. Adherent and floating cell populations were harvested at 48 hours after treatment with different concentrations of the compounds and counted.
(§3) Afterward, cells were washed with cold PBS once, centrifuged at 4° C. and fixed with 1.5 ml cold 70% ethanol added drop wise while slowly vortexing. Samples were then stored at […] Following fixation, cells were pelleted and washed with ice-cold PBS. Equal aliquots were collected and resuspended in 300 μl of Tali® Cell Cycle Kit and incubated at 37 C. with slow shaking speed for 30 minutes in the dark. Accuri C6 flow cytometer (BD Biosciences, USA) was used to analyze the cells. The FlowJo V10 software was used to process and evaluate the results.

[6] = test system: MDA-MB-468; experiment: Cell cycle analysis (flow cytometry); settings: 48 hours
Experimental: as §2, §3

[7] = test system: MCF-7; experiment: Cell cycle analysis (flow cytometry); settings: 48 h; 10 μM of compound 13, 5 μM of compound 14
Experimental: as §2, §3

[8] = test system: MDA-MB-231; experiment: MTT cell viability; settings: for IC50: Homo sapiens, MDA-MB-231, 48 hours of treatment, Mean ± SEM (n = 3 × 3); for SI of HNME/MDA-231 (selective index): ratio of LD50 on HNME-E6/E7 to IC50 on MDA-MB-231
Description: (§4) Breast cancer cell lines including MDA-MB-231, MDA-MB-468, MCF-7, BT-474 and SK-BR-3 were obtained from the American Type Tissue Culture (ATCC) and maintained in complete cell culture media Gibco® RPMI 1640 (Thermo Fisher Scientific, USA) supplemented with 10% fetal bovine serum (PAN-Biotech, Aidenbach, Bavaria, Germany) and 1% penicillin/streptomycin (1×) antibiotics (Thermo Fisher Scientific, USA). Human normal mammary epithelial cells immortalized by E6/E7 of HPV type 16 (HNME-E6/E7) were used to predict potential safety of the compounds (125, 126). They were maintained in Gibco® Keratinocyte-SFM (1×) media. All cells were incubated in 5% CO2 at 37° C. incubator. Cells were maintained by routine sub-culturing in T-75 and T25 filtered tissue culture flasks.
(§5) MDA-MB-231, MDA-MB-468, MCF-7, BT-474 and HNME-E6/E7 cells were seeded overnight in 96-well plates at a concentration of 8000-10,000/well depending on their pre-calculated cell density and were incubated overnight. At 24 hours, media was replaced with fresh one. The treatment wells included 6-8 different concentrations of the compounds ranging between 0.25 μM-160 μM. At 48 hours post treatment, 10 μL MTT solution was added to each well followed by 4 hours of incubation. Afterwards, media with MTT was removed from all wells and 50 μl DMSO was added to each well to dissolve the crystals. This was followed by 5 minutes incubation. Absorbance was recorded at a wavelength of 562 nm after 3 minutes of shaking using Infinite 200 PRO Microplate Reader (Tecan, Switzerland). Percentage of viable cells was calculated using the following formula: […]

[9] = test system: MDA-MB-468; experiment: MTT cell viability; settings: for IC50: Homo sapiens, MDA-MB-468, 48 hours of treatment, Mean ± SEM (n = 3 × 3); for SI of HNME/MDA-468 (selective index): ratio of LD50 on HNME-E6/E7 to IC50 on MDA-MB-468
Description: as §4, §5

[10] = test system: MCF-7; experiment: MTT cell viability; settings: for IC50: Homo sapiens, MCF7, 48 hours of treatment, Mean ± SEM (n = 3 × 3); for SI of HNME/MCF-7 (selective index): ratio of LD50 on HNME-E6/E7 to IC50 on MCF-7
Description: as §4, §5

[11] = test system: MDA-MB-231; experiment: Migration (wound healing) assay; settings: for IC50: 24 hours of treatment, 5 concentrations, two independent experiments, read-out: Migratory IC50 MDA-MB-231; for activity at 5 µM: 24 hours post treatment, control = 100, Mean ± SEM (N = 2 × 2), read-out: % migration
Experimental: MDA-MB-231 cells were seeded in 12-wells plates at a concentration of 500,000 cells/well and were incubated in complete RPMI culture medium until covering the well and reaching around 90-100% confluency. Following, cells were serum starved for 4 hours and a 200 μl pipette tip was used to create the scratch followed by cell washing with PBS twice. […] Microscopic pictures were then taken, and cell migration was quantified based on the wound diameter at 24 hours minus the initial diameter at time zero, as represented by the following equation: % Migration=[…]

[12] = test system: MDA-MB-231; experiment: Soft agar colony formation assay; settings: for less colonies as compared to untreated: 5 and 10 μM, 21 days post treatment; for colony formation (in words): MDA-MB-231, soft agar
[13] = test system: MDA-MB-468; experiment: Soft agar colony formation assay; settings: for less colonies as compared to untreated: 5 and 10 μM, 14 days post treatment
[14] = test system: MDA-MB-231; experiment: Matrigel invasion assay; settings: 24 hours; 13 (10 μM), 14 (5 μM)
Experimental: (§6) Matrigel-coated invasion chamber plates (CORNING, USA) were used to study the invasive property of MDA-MB-231, MDA-MB-468 and MCF-7 cancer cells. Cells were seeded at a concentration of 5×10^4 cells/0.5 ml in each upper chamber well and maintained in RPMI serum free medium. Complete RPMI medium with 10% FBS was added to each base well at 600 μl/well to act as an attractant to the cells in the upper chamber. After 24 hours, cells were fixed using a 3.70% formaldehyde as a fixator for 5 minutes. […] Thereafter, cells were stained using 5% crystal violet dissolved in ethanol and were incubated for 5 minutes followed by several rounds of washing with PBS. Cells were then visualized under the microscope and 4 pictures/well were taken from different zones. ImageJ software was used to quantify the number of invaded cells in each well.

[15] = test system: MDA-MB-468; experiment: Matrigel invasion assay; settings: 24 hours; 13 (10 μM), 14 (5 μM)
Experimental: as §6

[16] = test system: MCF-7; experiment: Matrigel invasion assay; settings: 24 hours; 13 (10 μM), 14 (5 μM)
Experimental: as §6

SMILES | cell morphology ([1]; 24 hours) | cell morphology ([1]; 48 hours) | cell morphology [2] | cell morphology [3] | less colonies as compared to untreated [4] [%] | colony formation (in words) [4] | cell cycle arrest (in words) [7] | IC50 [8] [µM] | SI of HNME/MDA-231 (selective index) [8] | IC50 [9] [µM] | SI of HNME/MDA-468 (selective index) [9] | IC50 [10] [µM] | SI of HNME/MCF-7 (selective index) [10] | IC50 ([11]; Homo sapiens, MDA-MB-231, 24 h) [µM] | activity at 5 µM ([11]; Homo sapiens, MDA-MB-231, 5 μM) [%] | less colonies as compared to untreated [12] [%] | colony formation (in words) [12] | less colonies as compared to untreated [13] [%] | reduction of cancer cells invasion vs DMSO control [14] [%] | reduction of cancer cells invasion vs DMSO control [15] [%] | also measured
CS(=O)(=O)c1ccc(C(=O)/C=C/c2ccc(N(CCCl)CCCl)cc2)cc1 [Compound 13, (E)-3-(4-(Bis(2-chloroethyl)amino)phenyl)-1-(4-(methylsulfonyl)phenyl) prop-2-en-1-one] | look more spherical in shape and to lose their mesenchymal fibroblastic property | Mainly single circular cells were obvious | obvious change in cell shape | triggered cells to become larger in shape | ~100 | better effects on MCF-7 as compared to colchicine | mainly noticed in the invasive cell lines but not in the noninvasive, MCF-7, cells | 9.67 ± 0.68 | 3.34 | 9.29 ± 0.68 | 3.48 | 8.95 ± 1.46 | 3.61 | 5.71 ± 0.57 | 59.5 ± 2.75 | ~100 | better effects on MDA-MB-231 as compared to colchicine and paclitaxel | ~100 | 79.57 | 48.45 | cell cycle arrest at the S phase (cells percentage) ([5]; 10 μM of compound 13): 28.7±1.87%; cell cycle arrest at the S phase (cells percentage) ([6]; 10 μM of compound 13): 46.8±5.39%; reduction of cancer cells invasion vs DMSO control [16]: 45.70%
COc1cccc(C(=O)/C=C/c2ccc(N(CCCl)CCCl)cc2)c1 [Compound 14, (E)-3-(4-(Bis(2-chloroethyl)amino)phenyl)-1-(3-methoxyphenyl) prop-2-en-1-one] | did not induce a significant difference | change in cell shape | obvious change in cell shape | induced cell shrinkage | ~100 | completely inhibited; also recorded: better effects on MCF-7 as compared to colchicine | mainly noticed in the invasive cell lines but not in the noninvasive, MCF-7, cells | 6.3 ± 0.78 | 3.2 | 8.73 ± 0.67 | 2.36 | 3.96 ± 1.87 | 5.22 | 2.86 ± 0.2 | 32.11 ± 0.17 | ~100 | completely inhibited; also recorded: better effects on MDA-MB-231 as compared to colchicine and paclitaxel | ~100 | 82.54 | 59.28 | cells arrested at the G2/M phase (cells percentage) ([5]; 5 μM of compound 14): 47.27±7.869%; cells arrested at the G2/M phase (cells percentage) ([6]; 5 μM of compound 14): 66.45±4.25%; IC50 [11]: 2.86 ± 0.197 µM; inhibition at 5 µM ([11]; Homo sapiens, MDA-MB-231, 5 μM, 24 hours, read-out: inhibition of cell migration): 67.89 ± 0.17%; colony formation (in words) ([13]; MDA-MB-468, soft agar): completely inhibited; reduction of cancer cells invasion vs DMSO control [16]: 57.26%
